Each structure is given as a SMILES string.

The subject of experiment [1] is Aphis gossypii. Briefly: Insecticidal activity against Aphis gossypii clone Burk (cotton aphid) in egg plant leaf assessed as mortality after 24 hr by leaf disk assay in presence of piperonyl butoxide. It counts as functional.
The test system of experiment [2] is Aphis gossypii. Briefly: Insecticidal activity against Aphis gossypii clone Auber (cotton aphid) in egg plant leaf assessed as mortality after 24 hr by leaf disk assay in presence of piperonyl butoxide. It is filed as functional.
Experiment [3] relates to Aphis gossypii. Put plainly: Insecticidal activity against Aphis gossypii clone Auber (cotton aphid) in egg plant leaf assessed as mortality after 24 hr by leaf disk assay in presence of S,S,S-tri-n-butyl phosphorotrithioate. It counts as functional.
Experiment [4] concerns Aphis gossypii. Briefly: Insecticidal activity against Aphis gossypii clone NM1 (cotton aphid) in zucchini or squash leaf assessed as mortality after 24 hr by leaf disk assay in presence of S,S,S-tri-n-butyl phosphorotrithioate. It is filed as functional.
The subject of experiment [5] is Aphis gossypii. Put plainly: Insecticidal activity against Aphis gossypii clone NM1 (cotton aphid) in zucchini or squash leaf assessed as mortality after 24 hr by leaf disk assay in presence of piperonyl butoxide. It counts as functional.
Experiment [6] relates to Aphis gossypii. It counts as functional.
Experiment [7] has as its system Aphis gossypii. It counts as functional. The source holds these as a separate data set.
Experiment [8] relates to Aphis gossypii. It is filed as functional. The source holds these as a separate data set.
For experiment [9], the system named is Aphis gossypii. Briefly: Synergist ratio, ratio of LC50 for Aphis gossypii clone Burk (cotton aphid) in presence of S,S,S-tri-n-butyl phosphorotrithioate to LC50 for Aphis gossypii clone Burk. It counts as functional.
Experiment [10] deals with Aphis gossypii. Briefly: Synergist ratio, ratio of LC50 for Aphis gossypii clone Burk (cotton aphid) in presence of piperonyl butoxide to LC50 for Aphis gossypii clone […]. It counts as functional.
For experiment [11], the system named is Aphis gossypii. Put plainly: Synergist ratio, ratio of LC50 for Aphis gossypii clone NM1 (cotton aphid) in presence of S,S,S-tri-n-butyl phosphorotrithioate to LC50 for Aphis gossypii clone NM1. It counts as functional.
Experiment [12] concerns Aphis gossypii. Put plainly: Synergist ratio, ratio of LC50 for Aphis gossypii clone NM1 (cotton aphid) in presence of piperonyl butoxide to LC50 for Aphis gossypii clone NM1. It is filed as functional.
Experiment [13] concerns Aphis gossypii. Briefly: Synergist ratio, ratio of LC50 for Aphis gossypii clone Auber (cotton aphid) in presence of piperonyl butoxide to LC50 for Aphis gossypii clone Auber. It counts as functional.
The subject of experiment [14] is Aphis gossypii. Briefly: Synergist ratio, ratio of LC50 for Aphis gossypii clone Auber (cotton aphid) in presence of S,S,S-tri-n-butyl phosphorotrithioate to LC50 for Aphis gossypii clone Auber. It counts as functional.
The test system of experiment [15] is Aphis gossypii. Put plainly: Insecticidal activity against Aphis gossypii clone Burk (cotton aphid) in egg plant leaf assessed as mortality after 24 hr by leaf disk assay in presence of S,S,S-tri-n-butyl phosphorotrithioate. It is filed as functional.
Experiment [16] deals with Aphis gossypii. It counts as functional. The source holds these as a separate data set.
For experiment [17], the system named is Aphis gossypii. It is filed as functional. This is another data set of the same source.
Experiment [18] has as its system Aphis gossypii. It counts as functional. The source holds these as a separate data set.
In experiment [19] the test system is Aphis gossypii. Briefly: Insecticidal activity against Aphis gossypii clone Ivo (cotton aphid) in cotton plant leaf assessed as mortality after 24 hr by leaf disk assay. It is filed as functional.
For experiment [20], the system named is Aphis gossypii. Briefly: Insecticidal activity against Aphis gossypii clone Burk (cotton aphid) in cotton plant leaf assessed as mortality after 24 hr by leaf disk assay. It is filed as functional.
Experiment [21] has as its system Aphis gossypii. Put plainly: Insecticidal activity against Aphis gossypii clone Auber (cotton aphid) in egg plant leaf assessed as mortality after 24 hr by leaf disk assay. It counts as functional.
Experiment [22] deals with Aphis gossypii. Briefly: Insecticidal activity against Aphis gossypii clone PsP4 (cotton aphid) in pepper plant leaf assessed as mortality after 24 hr by leaf disk assay. It counts as functional.
Experiment [23] concerns Aphis gossypii. It counts as functional, clone C4.
The subject of experiment [24] is Aphis gossypii. It is filed as functional, clone C9.
Experiment [25] relates to Aphis gossypii. It counts as functional, clone NM1.

As to `CC1(C)C(C=C(Cl)Cl)C1C(=O)OC(C#N)c1cccc(Oc2ccccc2)c1` (stereo not drawn) [ALPHA-CYPERMETHRIN], the LC50 in the experiment with Aphis gossypii [1] is reported as 207 ugAi/ml; in the experiment with Aphis gossypii [2], 23360 ugAi/ml; with Aphis gossypii [3], 8.5 ugAi/ml; in the experiment with Aphis gossypii [4] it was 119 ugAi/ml; with Aphis gossypii [5] it was 13.2 ugAi/ml; in the experiment on Aphis gossypii [15], 18516 ugAi/ml. Besides, the LC50 in the experiment with Aphis gossypii [19] stood at 7.1 ugAi/ml; in the experiment on Aphis gossypii [20] it was 6763.5 ugAi/ml; in the experiment with Aphis gossypii [21], 504 ugAi/ml; in the experiment on Aphis gossypii [22], 19.7 ugAi/ml; in the experiment with Aphis gossypii [23], 6.3 ugAi/ml; in the experiment with Aphis gossypii [24], 7.2 ugAi/ml. In the experiment with Aphis gossypii [25], this compound had an LC50 of 10.9 ugAi/ml. The RatioLC50 was determined as 0.5 in the experiment on Aphis gossypii [6]; 473 in the experiment with Aphis gossypii [7]; 41.2 in the experiment on Aphis gossypii [8]; 1.3 in the experiment with Aphis gossypii [9]; 1 with Aphis gossypii [10]; 1.3 with Aphis gossypii [11]. The RatioLC50 in the experiment with Aphis gossypii [12] stood at 0.8; in the experiment with Aphis gossypii [13], 4.2; in the experiment on Aphis gossypii [14], 2.4; with Aphis gossypii [16] it was 1.4; with Aphis gossypii [17], 0.4; with Aphis gossypii [18] it was 0.5.
As to `CCCSP(=O)(OCC)Oc1ccc(Br)cc1Cl` (centres undefined) [PROFENOFOS], the RatioLC50 is 0.4 in the experiment with Aphis gossypii [6]; 4.4 with Aphis gossypii [7]; 5.3 in the experiment on Aphis gossypii [8]; 6.8 in the experiment with Aphis gossypii [16]; 1.3 with Aphis gossypii [17]; 1.5 with Aphis gossypii [18]. Besides, the LC50 came out at 4.3 ugAi/ml with Aphis gossypii [19]; 50 ugAi/ml in the experiment with Aphis gossypii [20]; 59.6 ugAi/ml in the experiment on Aphis gossypii [21]; 77.1 ugAi/ml with Aphis gossypii [22]; 15 ugAi/ml with Aphis gossypii [23]; 17.2 ugAi/ml in the experiment on Aphis gossypii [24]. Further, in the experiment with Aphis gossypii [25], the LC50 came out at 11.3 ugAi/ml.
On to `CCCCN(CCCC)SN(C)C(=O)Oc1cccc2c1OC(C)(C)C2` [CARBOSULFAN], for which the RatioLC50 in the experiment with Aphis gossypii [6] is 0.5; in the experiment on Aphis gossypii [7] it was 0.7; in the experiment on Aphis gossypii [8], 0.9; in the experiment with Aphis gossypii [16], 0.9; in the experiment with Aphis gossypii [17], 1.2; in the experiment on Aphis gossypii [18], 1.2. The LC50 in the experiment on Aphis gossypii [19] amounted to 2.2 ugAi/ml; with Aphis gossypii [20], 3.1 ugAi/ml; in the experiment on Aphis gossypii [21] it was 4 ugAi/ml; with Aphis gossypii [22], 4.2 ugAi/ml; in the experiment with Aphis gossypii [23] it was 5.7 ugAi/ml; in the experiment with Aphis gossypii [24] it was 5.6 ugAi/ml. In the experiment on Aphis gossypii [25], the LC50 is on record as 4.6 ugAi/ml.
As to `C/C(=N\C#N)N(C)Cc1ccc(Cl)nc1`, the RatioLC50 is reported as 1 in the experiment with Aphis gossypii [6]; 1.6 with Aphis gossypii [7]; 2 in the experiment with Aphis gossypii [8]; 0.6 in the experiment with Aphis gossypii [16]; 0.9 in the experiment on Aphis gossypii [17]; 1.1 with Aphis gossypii [18]. Moreover, the LC50 with Aphis gossypii [19] was determined as 4 ugAi/ml; in the experiment with Aphis gossypii [20] it was 6.4 ugAi/ml; in the experiment on Aphis gossypii [21] it was 7.9 ugAi/ml; with Aphis gossypii [22], 2.5 ugAi/ml; in the experiment on Aphis gossypii [23] it was 3.7 ugAi/ml; in the experiment on Aphis gossypii [24], 4.3 ugAi/ml. Also, the LC50 with Aphis gossypii [25] came out at 3.9 ugAi/ml.
For the compound `Clc1ccc(C(c2ccc(Cl)cc2)C(Cl)(Cl)Cl)cc1` [CHLOROPHENOTHANE], the RatioLC50 is on record as 148.7 with Aphis gossypii [7] and 1.4 in the experiment with Aphis gossypii [8]. In addition, the results for the LC50 in the experiment on Aphis gossypii [20], with Aphis gossypii [21] and in the experiment with Aphis gossypii [25] were 30738.4 ugAi/ml, 291.6 ugAi/ml and 206.7 ugAi/ml, respectively.

For the origin of these results see ChEMBL document CHEMBL3046950, “Insecticide resistance traits differ among and within host races in Aphis gossypii” (2010).
